Here are results for three compounds from publication PMC6695453, “Peptide translocation by the lysosomal ABC transporter TAPL is regulated by coupling efficiency and activation energy” (Scientific Reports, 2019).

One assay deals with MRP1. Particulars: cited from earlier work. The source says: (§1) Other ABC transporters like P-glycoprotein have a biphasic substrate dependent ATPase activity. […] Basal ATPase activity of MRP1 is 3-fold stimulated by its substrate leucotriene C4, which forms contacts to both halfs o ...
The next assay relates to P-gp. The settings on record: cited from earlier work.
Text: as §1

The target in the next assay is T1, TAPL (Homo sapiens, UniProt Q9NP78).
T1 construct: Human coreTAPL (Q9NP78 UniProt, amino acid 143–766) fused C-terminally to mVenus; made in house; host or cells: Pichia pastoris SMD1168-His+
T1 sequence (Q9NP78 143-766): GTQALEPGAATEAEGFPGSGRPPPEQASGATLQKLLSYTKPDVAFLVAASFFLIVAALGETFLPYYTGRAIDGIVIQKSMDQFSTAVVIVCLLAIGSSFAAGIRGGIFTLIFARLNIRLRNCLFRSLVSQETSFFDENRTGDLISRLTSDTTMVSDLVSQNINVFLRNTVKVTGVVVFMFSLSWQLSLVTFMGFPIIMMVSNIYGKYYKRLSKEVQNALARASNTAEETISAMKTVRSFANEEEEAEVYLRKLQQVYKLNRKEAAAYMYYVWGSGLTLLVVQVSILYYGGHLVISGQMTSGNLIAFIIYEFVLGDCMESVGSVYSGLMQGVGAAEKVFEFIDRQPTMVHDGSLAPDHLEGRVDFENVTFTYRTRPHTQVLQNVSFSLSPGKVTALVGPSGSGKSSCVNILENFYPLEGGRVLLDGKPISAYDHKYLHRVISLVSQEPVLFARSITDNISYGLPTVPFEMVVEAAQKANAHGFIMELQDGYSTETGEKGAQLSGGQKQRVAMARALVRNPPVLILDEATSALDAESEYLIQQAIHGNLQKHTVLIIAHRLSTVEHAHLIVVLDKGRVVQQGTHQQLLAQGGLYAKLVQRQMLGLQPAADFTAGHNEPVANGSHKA
The settings on record: GTP vs ATP; cited from earlier work. The source says:
To decipher the coupling between nucleotide hydrolysis and peptide transport, we intended to reduce futile hydrolysis cycles without translocating peptides. Assuming a kinetic effect where ATP binding and subsequent ATP hydrolysis is much faster than peptide binding, a more stoichiometric coupling should be obtained with decreasing ATP concentrations. Therefore, we determined Michaelis-Menten kinetics of nucleotide hydrolysis and peptide transport with decreasing nucleotide concentrations. For sensitivity reasons, we switched from the colorimetric malachite green based assay to a radioactive b ...

In the next assay the test system is PatA/PatB. The settings on record: transport and NTP hydrolysis, 37 °C; cited from earlier work. The source says:
Both nucleotides show the same Km and kcat values in respect of NTP hydrolysis. […] NTP dependent transport was found also for other ABC transporters. […] The full-length ABC transport Pdr5 from yeast hydrolyzes GTP and even UTP, but ...

The next assay deals with TmrAB (Thermus thermophilus, UniProt Q72J04+Q72J05). As to the kind of experiment: NTP dependent peptide transport by TmrAB. Particulars: 68 °C, 9-mer^FL peptide.

Turning to `CCCCC/C=C\C\C=C/C=C/C=C/[C@@H](SC[C@H](NC(=O)CC[C@H](N)C(=O)O)C(=O)NCC(=O)O)[C@@H](O)CCCC(=O)O` [leucotriene C4], the “fold stimulation of basal ATPase activity” value in the assay on MRP1 is on record as 3 fold.

In the case of `O[C@@H](COc1cccc2ncccc12)CN1CCN([C@@H]2c3ccccc3[C@@H]3[C@H](c4ccccc42)C3(F)F)CC1` [Zosuquidar], the “effect on P-gp transport and ATP hydrolysis (in words)” value in the assay on P-gp is given as “inhibits transport but stimulates ATP hydrolysis”.

As to `Nc1nc2c(ncn2[C@@H]2O[C@H](COP(=O)(O)OP(=O)(O)OP(=O)(O)O)[C@@H](O)[C@H]2O)c(=O)[nH]1` [GTP], the “fuelling of peptide transport vs ATP (in words)” value at TAPL is given as “to a lower extend than ATP”. In the assay with PatA/PatB, the “nucleotide preference of PatA/PatB (in words)” value is on record as “strongly prefers GTP over ATP”. For the same compound, on TmrAB, the “fold decreased transport rate for GTP compared to ATP, TmrAB” value amounted to 6 fold.
